Columns and labels:
Assay in all cases: CTG-3D luminescence at 96 h relative to day-0 seeding control (ratio to day 0); higher = more growth / less cytotoxicity; PDxO 3D drug screen, 96 h, CTG-3D normalised to day-0 seeding control.
HCI-008 = system: HCI-008 (organoid from a HER2-enriched breast cancer xenograft)
HCI-015 = system: HCI-015 (organoid from a triple-negative breast cancer xenograft)
HCI-005.E2 = system: HCI-005.E2 (organoid from a breast cancer xenograft with a HER2-positive history)
HCI-016 = system: HCI-016 (organoid from a triple-negative breast cancer xenograft)
HCI-001 = system: HCI-001 (organoid from a triple-negative breast cancer xenograft)

CN(Cc1cnc2nc(N)nc(N)c2n1)c1ccc(C(=O)N[C@@H](CCC(=O)O)C(=O)O)cc1 [methotrexate]
CTG-3D luminescence at 96 h
Conditions | 12.5 pM | 0.00025 µM | 0.005 µM | 0.1 µM | 1 µM | 10 µM | 100 µM | 625 fM
HCI-001, days in culture: 240 | 2.01 | 1.12 | 1.13 | 1.01 | 1.26 | 1.06 | 1.21 | 1.72
HCI-001, days in culture: 260 | 2.08 | 0.984 | 2.27 | 1.47 | 1.43 | 1.62 | 0.88 | 1.26
HCI-001, days in culture: 269 | 1.68 | 1.46 | 1.53 | 1.86 | 1.46 | 2.16 | 2.3 | 1.5
HCI-001, days in culture: 327 | 1.75 | 1.62 | 2.05 | 1.14 | 0.877 | 0.985 | 1.35 | 1.69
HCI-001, days in culture: 346 | 1.53 | 1.34 | 1.28 | 1.02 | 0.965 | 1.41 | 1.19 | 1.2
HCI-001, days in culture: 364 | 1.58 | 1.17 | 1.45 | 0.891 | 0.633 | 1.11 | 0.716 | 1.64
HCI-008, days in culture: 228 | 1.82 | 1.9 | 1.53 | 1.98 | 1.97 | 1.82 | 1.2 | 2.01
HCI-008, days in culture: 244 | 1.4 | 1.83 | 1.93 | 2.13 | 1.59 | 1.93 | 1.66 | 2.31
HCI-015, days in culture: 172 | 2.51 | 2.28 | 2.36 | 1.31 | 1.55 | 1.13 | 1.06 | 2.55
HCI-015, days in culture: 191 | 1.94 | 1.41 | 1.62 | 1.1 | 1.23 | 0.977 | 0.939 | 1.36
HCI-015, days in culture: 218 | 1.75 | 1.57 | 1.63 | 1.69 | 1.48 | 1.63 | 1.21 | 1.79
HCI-016, days in culture: 153 | 3.33 | 1.65 | 2.64 | 1.65 | 1.9 | 2.08 | 1.39 | 2.86
HCI-016, days in culture: 172 | 2.17 | 1.68 | 1.56 | 1.51 | 1.49 | 1.25 | 1.41 | 1.71
HCI-016, days in culture: 190 | 1.69 | 1.3 | 1.7 | 0.906 | 1.08 | 1.21 | 1.52 | 0.969
HCI-016, days in culture: 199 | 1.57 | 1.47 | 1.56 | 1.47 | 1.53 | 1.37 | 1.26 | 1.73

HCI-005.E2
Conditions | CTG-3D luminescence at 96 h
12.5 pM | 2.09
0.00025 µM | 1.81
0.005 µM | 1.86
0.1 µM | 1.02
1 µM | 0.572
10 µM | 0.678
100 µM | 0.678
625 fM | 2.1

Nc1ccn([C@@H]2O[C@H](CO)[C@@H](O)C2(F)F)c(=O)n1 [gemcitabine]
CTG-3D luminescence at 96 h
Conditions | 12.5 pM | 0.00025 µM | 0.005 µM | 0.1 µM | 1 µM | 10 µM | 100 µM | 625 fM
HCI-001, days in culture: 240 | 1.56 | 1.26 | 1.1 | 0.596 | 0.86 | 0.454 | 0.527 | 1.22
HCI-001, days in culture: 260 | 2.47 | 0.95 | 1.44 | 0.622 | 0.617 | 0.522 | 0.302 | 1.77
HCI-001, days in culture: 269 | 1.5 | 1.62 | 1.4 | 0.602 | 0.42 | 0.735 | 0.331 | 1.53
HCI-001, days in culture: 327 | 1.48 | 0.959 | 1.31 | 0.497 | 0.506 | 0.37 | 0.222 | 1.83
HCI-001, days in culture: 346 | 1.31 | 1.2 | 1.1 | 0.33 | 0.429 | 0.5 | 0.259 | 1.1
HCI-001, days in culture: 364 | 1.41 | 1.23 | 1.3 | 0.275 | 0.401 | 0.332 | 0.147 | 1.33
HCI-008, days in culture: 228 | 1.403 | 1.8 | 1.3404 | 0.6483 | 0.596 | 0.717 | 0.362 | 1.48
HCI-008, days in culture: 244 | 1.25 | 1.74 | 1.74 | 1.26 | 0.69 | 0.873 | 0.465 | 2.18
HCI-015, days in culture: 172 | 2.22 | 1.3 | 1.95 | 0.109 | 0.123 | 0.136 | 0.152 | 2.75
HCI-015, days in culture: 191 | 2.28 | 1.52 | 0.975 | 0.116 | 0.114 | 0.105 | 0.109 | 1.5
HCI-015, days in culture: 218 | 1.86 | 1.48 | 0.887 | 0.138 | 0.105 | 0.107 | 0.0645 | 1.8
HCI-016, days in culture: 153 | 2.99 | 1.91 | 2.52 | 0.96 | 0.509 | 0.286 | 0.0753 | 2.4
HCI-016, days in culture: 172 | 1.95 | 1.97 | 1.64 | 0.366 | 0.257 | 0.0907 | 0.0466 | 1.66
HCI-016, days in culture: 190 | 1.61 | 1.34 | 1.52 | 0.261 | 0.268 | 0.122 | 0.0539 | 1.21
HCI-016, days in culture: 199 | 1.57 | 1.28 | 1.3 | 0.174 | 0.16 | 0.112 | 0.0387 | 1.49

HCI-005.E2
Conditions | CTG-3D luminescence at 96 h
12.5 pM | 1.6
0.00025 µM | 1.96
0.005 µM | 1.71
0.1 µM | 0.511
1 µM | 0.224
10 µM | 0.406
100 µM | 0.438
625 fM | 1.65
